{"source": "patent US20080267948A1", "about": "“Croos-B Structure Binding Compounds” (priority 2005, published 2008)", "key": {"tPA/plasminogen [1]": {"biological_target": "T1, tPA/plasminogen (Homo sapiens, UniProt P00750)", "T1 construct": "purchased Boehringer Ingelheim Actilyse", "T1 sequence (P00750 36-562)": "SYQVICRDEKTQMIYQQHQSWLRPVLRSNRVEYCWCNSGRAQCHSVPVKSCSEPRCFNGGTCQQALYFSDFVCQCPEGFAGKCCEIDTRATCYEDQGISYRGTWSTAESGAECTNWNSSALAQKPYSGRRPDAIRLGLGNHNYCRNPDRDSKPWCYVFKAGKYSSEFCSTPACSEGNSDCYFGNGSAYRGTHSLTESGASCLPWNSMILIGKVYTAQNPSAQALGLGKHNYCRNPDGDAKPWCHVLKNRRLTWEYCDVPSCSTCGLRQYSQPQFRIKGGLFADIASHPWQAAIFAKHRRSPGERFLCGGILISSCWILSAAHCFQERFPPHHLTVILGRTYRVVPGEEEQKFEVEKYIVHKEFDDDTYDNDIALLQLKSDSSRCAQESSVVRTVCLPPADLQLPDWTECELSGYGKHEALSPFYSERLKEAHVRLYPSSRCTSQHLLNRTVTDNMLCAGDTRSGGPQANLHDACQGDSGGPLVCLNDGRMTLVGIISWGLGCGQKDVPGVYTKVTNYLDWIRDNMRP", "assay": "tPA/plasminogen activation by pre-formed misfolded OVA in the presence of compounds", "assay_type": "biochemical", "settings": "80-fold or 160-fold diluted compound and misfolded OVA stocks of 1 mg/ml", "protocol": "[…] Negative control was buffer without OVA. […] In addition, it was assessed whether the compounds interfere with absorbance readings at 405 nm, with converted chromogenic substrate. […] The yellow solution is divided over wells of an ELISA plate. […] Signals are compared and related to the control."}, "tPA/plasminogen [2]": {"biological_target": "T1, tPA/plasminogen", "assay": "tPA/plasminogen activation by OVA heated in the presence of compounds (substrate PNAPEP1751)", "assay_type": "biochemical", "settings": "25 μg/ml OVA, 25 μg/ml compound, […] DMSO", "procedure,_shortened": "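Ovalbumin heated alone in PBS/1% DMSO (positive control) or with compounds at 1 mg/ml, then used 40-fold diluted in a tPA/plasminogen activation assay; buffer without OVA as negative control. Chromogenic substrate conversion read at 405 nm, with compound interference at 405 nm checked; signals related to control.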"}, "human blood platelets": {"test_system": "human blood platelets", "assay": "Platelet aggregation (aggregometric assay with washed platelets)", "assay_type": "cell-based", "settings": "for platelet aggregation by compound alone: 25 or 50 μg/ml ellagic acid, hydrate", "protocol": "The influence of amyloid-β(1-40) E22Q Dutch type (Aβ) peptide aggregates with cross-β structure conformation on blood platelet aggregation was tested with washed platelets in an aggregometric assay. Freshly drawn human aspirin free blood was mixed gently with citrate buffer to avoid coagulation. Blood was spinned for 15′ at 150*g at 20° C. and supernatant was collected; platelet rich plasma (PRP). […] After spinning down the platelets upon centrifugation for 15′ at 330*g at 20° C., the pellet was resuspended in HEPES-Tyrode buffer pH 6.5. Prostacyclin was added to a final concentration of 10 ng/ml, and the solution was centrifuged for 15′ at 330*g at 20° C., with a soft brake. The pellet was resuspended in HEPES-Tyrode buffer pH 7.2 in a way that the final platelet number was adjusted to 200,000/μl. Platelets were kept at 37° C. for at least 30′, before use in the assays, to ensure that they were in the resting state.\nAggregation of platelets was monitored in an aggregometer (Chrono-Log Corporation, Havertown, Pa., USA) for 15 minutes at 37° C. with a magnet stirring speed of 900 rpm. First, 270 μl of platelet solution was pipetted in the cuvettes and after 1 minute of stirring, 30 μl of preincubated (5 minutes, RT) Aβ and Hematein solution or control was added. The hematein stock was 10 mg/ml in HEPES-Tyrode buffer. The Aβ stock was 1 mg/ml. For blank readings unstirred HEPES Tyrode buffer was used. The aggregation is expressed as the percentage of the light transmission (0-100%). As a positive control, synthetic thrombin receptor activating peptide (TRAP) induced platelet aggregation was used. A control experiment was performed to study the influence of the red colour of hematein on the light transmission. For this, 4 μM TRAP was added at time 1 minute to the platelets, then hematein was added after 6 minutes of aggregation. The platelets were used for not more than 4 hours after isolation to reduce variations in sensitivity amongst subsequent measurements.\nEllagic acid was first dissolved to 100 mg/ml in DMSO, and then further diluted to 1 mg/ml in HBS buffer. Final concentrations of Aβ and ellagic acid in the aggregation assay were 50 μg/ml and 25/50 μg/ml, respectively. In addition, the influence of ellagic acid alone on platelet aggregation was tested. As a control, the influence of 0.08% DMSO on 50 μg/ml Aβ-induced platelet aggregation was analyzed. The 100% DMSO of the ellagic acid stock was diluted 2000 and 4000×, resulting in […] final DMSO concentrations in the aggregation assay."}}, "note": "Entries after “also recorded” stand apart in the source; their conditions may differ.", "data": [{"smiles": "O=c1oc2c(O)c(O)cc3c(=O)oc4c(O)c(O)cc1c4c23", "note": "[compound 117, Ellagic acid hydrate]", "values": [{"measurement": "influence on tPA/plasminogen activation by pre-formed misfolded OVA", "setting": "tPA/plasminogen [1]", "value": "Full block of tPA/plasminogen activation by misfolded OVA"}, {"measurement": "influence on tPA/plasminogen activation by OVA pre-heated in the presence of compound", "setting": "tPA/plasminogen [2]", "value": "Inhibition of tPA/plasminogen activation by OVA pre-heated"}, {"measurement": "influence on Aβ induced platelet aggregation", "setting": "human blood platelets; 25 and 50 μg/ml ellagic acid hydrate, 100 μg/ml Aβ", "value": "further enhances amyloid-β triggered aggregation"}, {"measurement": "platelet aggregation by compound alone", "setting": "human blood platelets; listed as ellagic acid hydrate", "value": "potent activator of platelets resulting in their aggregation; also recorded: Stimulation of platelet aggregation"}, {"measurement": "platelet aggregation by compound alone", "setting": "human blood platelets; listed as ellagic acid", "value": "strong inducer of aggregation"}]}]}
